pIC50: −log10 of the molar value.
Assays:
K-562 cells = assay: Cell growth inhibition assay (CellTiter-Glo), K-562; assay type: cell-based, human; details: Homo sapiens, K562, read-out: K-562 TGI
Summary of the method: (§1)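 Dose-response over 3-fold dilutions from 10 μM; 0.1% DMSO control. Endpoint: CellTiter-Glo ATP signal, background-subtracted and day 0-corrected.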

[1] = biological target: His-CREBBP (1081-1197) bromodomain (Homo sapiens (Human), UniProt Q92793); assay: AlphaScreen in-vitro binding assay for CREBBP; details: biochemical
His-CREBBP (1081-1197) bromodomain, sequence (Q92793 1081-1197): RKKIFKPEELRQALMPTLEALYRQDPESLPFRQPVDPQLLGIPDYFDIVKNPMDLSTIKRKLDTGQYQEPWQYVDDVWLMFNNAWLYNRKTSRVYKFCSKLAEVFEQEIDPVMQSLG
Summary of the method: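 Ni-chelate acceptor and streptavidin donor beads (45 µg/mL each, in 50 mM HEPES pH 7.5, 150 mM NaCl, 0.02% BSA) were then added for 60 min at room temperature. IC50 came from 8-point non-linear regression.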

MV-4-11 cells = assay: Cell growth inhibition assay (CellTiter-Glo), MV-4-11; assay type: cell-based; details: Homo sapiens, MV4-11, read-out: MV-4-11 TGI
Summary of the method: as §1

[2] = biological target: nuclear BRD4-NUT foci in HCC2494 NUT midline carcinoma cells (Homo sapiens (Human), UniProt O60885+Q86Y26); assay: Nut-foci formation assay; assay type: cell-based; details: 24 hours, read-out: HCS Brd4-NUT IC50
Summary of the method: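 HCC2494 cells carrying BRD4-NUT, treated 24 h at 37 °C with 3-fold dilutions from 10 μM. Fixed and stained with anti-NUT antibody, imaged automatically to count nuclear foci per nucleus.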

pIC50 [1]	pIC50 [2]	SMILES	IC (total growth inhibition) (K-562 cells)	IC (total growth inhibition) (MV-4-11 cells)
5.51	7.75	Cc1cc(N2C(=O)c3nn(C4CC4)c(C)c3C2c2ccc(Cl)cc2)cn2c(C)nnc12 (stereo not shown) [Example 93, 4-(4-chlorophenyl)-2-cyclopropyl-5-(3,8-dimethyl-[1,2,4]triazolo[4,3-a]pyridin-6-yl)-3-methyl-4,5-dihydropyrrolo[3,4-c]pyrazol-6(2H)-one]	> 10 µM	0.0226 µM
6.19	7.66	Cc1nn(C2CCC2)c2c1C(c1ccc(Cl)cc1)N(c1cc(C)c(=O)n(C)c1)C2=O (stereo not shown) [Example 94, 4-(4-chlorophenyl)-1-cyclobutyl-5-(1,5-dimethyl-6-oxo-1,6-dihydropyridin-3-yl)-3-methyl-4,5-dihydropyrrolo[3,4-c]pyrazol-6(1H)-one]	> 10 µM	0.0318 µM
5.11	6.72	Cc1nn(C2CC2)c2c1C(c1ccc(OC(F)(F)F)cc1)N(c1cc(C)c(=O)n(C)c1)C2=O (stereo not shown) [Example 95, 1-cyclopropyl-5-(1,5-dimethyl-6-oxo-1,6-dihydropyridin-3-yl)-3-methyl-4-(4-(trifluoromethoxy)phenyl)-4,5-dihydropyrrolo[3,4-c]pyrazol-6(1H)-one]	> 10 µM	0.27 µM
4.74	5.70	Cc1nn(C2CC2)c2c1C(c1cccc(C(F)(F)F)c1)N(c1cc(C)c(=O)n(C)c1)C2=O (stereo not shown) [Example 96, 1-cyclopropyl-5-(1,5-dimethyl-6-oxo-1,6-dihydropyridin-3-yl)-3-methyl-4-(3-(trifluoromethyl)phenyl)-4,5-dihydropyrrolo[3,4-c]pyrazol-6(1H)-one]	> 10 µM	1.24 µM
5.44	6.84	Cc1nn(C2CC2)c2c1C(c1ccc(C(F)(F)F)cc1)N(c1cc(C)c(=O)n(C)c1)C2=O (stereo not shown) [Example 97, 1-cyclopropyl-5-(1,5-dimethyl-6-oxo-1,6-dihydropyridin-3-yl)-3-methyl-4-(4-(trifluoromethyl)phenyl)-4,5-dihydropyrrolo[3,4-c]pyrazol-6(1H)-one]	> 10 µM	0.12 µM
5.38	7.38	COc1ncc(-n2nc(C)c3c2C(=O)N(c2cc(C)c(=O)n(C)c2)[C@@H]3c2ccc(Cl)cc2)c(OC)n1 [Example 100, (R)-4-(4-chlorophenyl)-1-(2,4-dimethoxypyrimidin-5-yl)-5-(1,5-dimethyl-6-oxo-1,6-dihydropyridin-3-yl)-3-methyl-4,5-dihydropyrrolo[3,4-c]pyrazol-6(1H)-one]	> 10 µM	0.0582 µM
< 4.43	< 5.00	Cc1nn(C(C)C)c2c1[C@H](c1ccc(Cl)cc1)N(c1cc(C)c(=O)n(C)c1)C2=O [Example 103, (S)-4-(4-chlorophenyl)-5-(1,5-dimethyl-6-oxo-1,6-dihydropyridin-3-yl)-1-isopropyl-3-methyl-4,5-dihydropyrrolo[3,4-c]pyrazol-6(1H)-one]	> 10 µM	6.54 µM
5.92	7.95	Cc1nn(C(C)C)c2c1[C@@H](c1ccc(Cl)cc1)N(c1cc(C)c(=O)n(C)c1)C2=O [Example 104, (R)-4-(4-chlorophenyl)-5-(1,5-dimethyl-6-oxo-1,6-dihydropyridin-3-yl)-1-isopropyl-3-methyl-4,5-dihydropyrrolo[3,4-c]pyrazol-6(1H)-one]	> 10 µM	0.0191 µM

The remaining lines, values behind:

SMILES	pIC50 [1]	pIC50 [2]	IC (total growth inhibition) (K-562 cells)	IC (total growth inhibition) (MV-4-11 cells)
CCc1nn(C2CC2)c2c1C(c1ccc(Cl)cc1)N(c1cc(OC)c3nnc(C)n3c1)C2=O (stereo not shown) [Example 84, 4-(4-chlorophenyl)-1-cyclopropyl-3-ethyl-5-(8-methoxy-3-methyl-[1,2,4]triazolo[4,3-a]pyridin-6-yl)-4,5-dihydropyrrolo[3,4-c]pyrazol-6(1H)-one]	< 4.43	7.04	> 10 µM	0.098 µM
CCc1nn(CCOC)c2c1C(c1ccc(Cl)cc1)N(c1cc(C)c3nnc(C)n3c1)C2=O (stereo not shown) [Example 87, 4-(4-chlorophenyl)-5-(3,8-dimethyl-[1,2,4]triazolo[4,3-a]pyridin-6-yl)-3-ethyl-1-(2-methoxyethyl)-4,5-dihydropyrrolo[3,4-c]pyrazol-6(1H)-one]	5.01	7.76	> 10 µM	0.0288 µM
CCc1nn(-c2ccnn2C)c2c1C(c1ccc(Cl)cc1)N(c1cc(C)c(=O)n(C)c1)C2=O (stereo not shown) [Example 89, 4-(4-chlorophenyl)-5-(1,5-dimethyl-6-oxo-1,6-dihydropyridin-3-yl)-3-ethyl-1-(1-methyl-1H-pyrazol-5-yl)-4,5-dihydropyrrolo[3,4-c]pyrazol-6(1H)-one]	5.60	7.35	> 10 µM	0.0673 µM
Cc1nn(-c2ccnn2C)c2c1C(c1ccc(Cl)cc1)N(c1cc(C)c3nnc(C)n3c1)C2=O (stereo not shown) [Example 90, 4-(4-chlorophenyl)-5-(3,8-dimethyl-[1,2,4]triazolo[4,3-a]pyridin-6-yl)-3-methyl-1-(1-methyl-1H-pyrazol-5-yl)-4,5-dihydropyrrolo[3,4-c]pyrazol-6(1H)-one]	< 4.43	7.35	> 10 µM	0.0436 µM
COc1ncc(-n2nc(C)c3c2C(=O)N(c2cc(C)c(=O)n(C)c2)[C@H]3c2ccc(Cl)cc2)c(OC)n1 [Example 99, (S)-4-(4-chlorophenyl)-1-(2,4-dimethoxypyrimidin-5-yl)-5-(1,5-dimethyl-6-oxo-1,6-dihydropyridin-3-yl)-3-methyl-4,5-dihydropyrrolo[3,4-c]pyrazol-6(1H)-one]	< 4.43	5.05	> 10 µM	4.31 µM
COc1ncccc1-n1nc(C)c2c1C(=O)N(c1cc(C)c3nnc(C)n3c1)C2c1ccc(Cl)cc1 (stereo not shown) [Example 101, 4-(4-chlorophenyl)-5-(3,8-dimethyl-[1,2,4]triazolo[4,3-a]pyridin-6-yl)-1-(2-methoxypyridin-3-yl)-3-methyl-4,5-dihydropyrrolo[3,4-c]pyrazol-6(1H)-one]	4.72	7.18	> 10 µM	0.0447 µM
Cc1nn(C2CC2)c2c1C(c1ccc(Cl)cc1)N(c1ccc3nnn(C)c3n1)C2=O (stereo not shown) [Example 102, 4-(4-chlorophenyl)-1-cyclopropyl-3-methyl-5-(3-methyl-3H-[1,2,3]triazolo[4,5-b]-pyridin-5-yl)-4,5-dihydropyrrolo[3,4-c]pyrazol-6(1H)-one]	< 4.43	6.64	> 10 µM	0.141 µM
CCc1nn(C)c2c1C(c1ccc(Cl)cc1)N(c1cc(OC)c3nnc(C)n3c1)C2=O (stereo not shown) [Example 105, 4-(4-chlorophenol)-3-ethyl-5-(8-methoxy-3-methyl-[1,2,4]triazolo[4,3-a]pyridin-6-yl)-1-methyl-4,5-dihydropyrrolo[3,4-c]pyrazol-6(1H)-one]	< 4.43	7.01	> 10 µM	0.164 µM
